Several values for one entry are separate records, joined by “and”; a condition that tells them apart may be missing. Identical values can stand only once.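 Each compound was tested at five concentrations against cells in 96-well plates for 48 hours. GI50 is the concentration that inhibits growth by half. TGI: concentration producing complete growth inhibition.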
Tests used:
Assay in all cases: NCI tumour cell line growth inhibition, 48 h
[1] = tested on: SW-620 colon
[2] = tested on: MALME-3M melanoma
[3] = tested on: A549 NSCLC
[4] = tested on: NCI-H522 lung
[5] = tested on: SN12C renal
[6] = tested on: RXF 393 renal
[7] = tested on: HOP-62 NSCLC
[8] = tested on: SK-MEL-5 melanoma
[9] = tested on: EKVX NSCLC
[10] = tested on: K-562 leukemia

| Structure (SMILES) | GI50 [1] [µM] | TGI [1] [µM] | GI50 [2] [µM] | TGI [2] | GI50 [3] [µM] | TGI [3] [µM] | GI50 [4] [µM] | TGI [4] | GI50 [5] | TGI [5] | GI50 [6] [µM] | TGI [6] | GI50 [7] | TGI [7] | GI50 [8] | TGI [8] | GI50 [9] | TGI [9] | GI50 [10] | TGI [10] [µM] |
| --- | --- | --- | --- | --- | --- | --- | --- | --- | --- | --- | --- | --- | --- | --- | --- | --- | --- | --- | --- | --- |
| CCCCC(OC(=O)c1ccc(N)cc1)C(=O)Nc1nc(CC(=O)OCC)cs1 (centres undefined) | 48 | > 100 | 30.1 | > 100 µM | 37.5 | > 100 | 33.9 | > 100 µM | 41.6 µM | > 100 µM | 38.1 | > 100 µM | 56.5 µM | > 100 µM | 17.8 µM | 34.5 µM | 38 µM | > 100 µM | 32.8 µM | > 100 |
| CC1(C)N=c2cc3c(cc2N1c1ccc(Cl)cc1)=Nc1ccccc1N3c1ccc(Cl)cc1 | 4.68 | 21.9 | 4.79 | > 100 µM | 5.93 | > 100 | 3.93 | 74.6 µM | 7.9 µM | > 100 µM | 1.75 | 5.77 µM | > 100 µM | > 100 µM | 3.64 µM | 20.3 µM | 5.31 µM | > 100 µM | 1.68 µM | 4.95 |
| O=C1/C(=C/c2ccc(F)cc2)CN(C(=O)C(Cl)Cl)C/C1=C\c1ccc(F)cc1 | 0.0365 | 0.119 | 0.212 | 0.528 µM | 0.324 | 1.38 | 1.5 | 3.27 µM | 0.222 µM | 0.556 µM | 0.445 | 0.968 µM | 0.407 µM | 1.51 µM | 0.366 µM | 1.01 µM | 0.393 µM | 1.46 µM | 0.0533 µM | > 100 |
| CC(=O)Nc1ccc(OC(C)=O)cc1 | < 0.01 | > 100 | 0.668 | 24.5 µM | < 0.01 | 30.8 | < 0.01 | < 0.01 µM | < 0.01 µM | 49.1 µM | < 0.01 | 6.3 µM | < 0.01 µM | 14.7 µM | < 0.01 µM | < 0.01 µM | 3 µM | > 78.7 µM | < 0.01 µM | > 57.2 |
| O=C1NC2(CCCC2)C2CCCCC12O (centres undefined) | – | > 100 | – | > 100 µM | – | > 100 | – | > 100 µM | – | > 100 µM | – | > 100 µM | – | > 100 µM | – | > 100 µM | – | > 100 µM | – | > 100 |
| Brc1ccc(C=NC23CC4CC(CC(C4)C2)C3)cc1 | – | > 100 | – | > 100 µM | – | > 100 | – | > 100 µM | – | > 100 µM | – | > 100 µM | – | > 100 µM | – | > 100 µM | – | > 100 µM | – | > 100 |
| CCOC(=O)c1c2c(n3ccc(NC(=O)CCN4CCCCC4)cc13)C(=O)c1ncccc1C2=O | 0.0269 | 2.38 | 1.16 | 2.73 µM | 0.0547 | 2.81 | 0.0158 | 1.72 µM | 0.111 µM | 2.33 µM | 0.256 | 2.4 µM | 0.0229 µM | 1.83 µM | 0.541 µM | 1.98 µM | 3.03 µM | 8.47 µM | 0.117 µM | 2.57 |
| CC1(C)CCc2c(c(N=Nc3ccccc3F)c3ccccc3c2O)O1 | 32.8 | > 100 | 34.5 | > 100 µM | 34 | > 100 | 38.6 | > 100 µM | 22.7 µM | 53.1 µM | 79 | > 100 µM | 45.3 µM | > 100 µM | 52.6 µM | > 100 µM | > 100 µM | > 100 µM | > 100 µM | > 100 |
| CC[C@H]1CCC/C=C/[C@@H]2C[C@H](O)C[C@H]2[C@H](O)/C=C/C(=O)O1 | 0.0313 | 0.517 | 0.0381 | – | 0.0434 | > 100 | 0.211 | 0.634 µM | 0.053 µM | > 100 µM | 0.016 | 0.0379 µM | 0.0809 µM | – | 0.0166 µM | 0.0328 µM | 0.0522 µM | > 100 µM | 0.125 µM | > 100 |
| CN[C@@H](Cc1cccc2ccccc12)C(=O)N[C@@H](CC(C)C)B(O)O | 0.012 | 0.026 | 0.0121 | 0.0336 µM and 0.0214 µM | 0.0465 | – | – | < 0.0103 µM | 0.0167 µM | 0.0722 µM and 0.0185 µM | 0.018 | 0.0353 µM | 0.0371 µM | 0.129 µM and 0.0368 µM | 0.0249 µM | 0.103 µM and 0.0128 µM | 0.0277 µM | 0.209 µM and 0.0476 µM | 0.0228 µM | 0.0952 |
| O=S(=O)(O)n1ccnc1 (tested in a mixture with another compound) | – | > 100 | – | > 100 µM | – | > 100 | – | > 100 µM | – | > 100 µM | – | > 100 µM | – | > 100 µM | – | > 100 µM | – | > 100 µM | – | > 100 |
| CCCCCCCC(=O)OCC1OC(n2cc(F)c(=O)[nH]c2=O)C(N)C(O)C1O (centres undefined) | – | > 100 | – | > 100 µM | – | > 100 | – | > 100 µM | – | > 100 µM | – | > 100 µM | – | > 100 µM | – | > 100 µM | – | > 100 µM | – | > 100 |
| CCCCc1n(Cc2ccc3ccccc3n2)cc[n+]1Cc1ccc2ccccc2n1 | 2.56 | 13.7 | 0.946 | 7.03 µM | 4.75 | 18.6 | 0.445 | 4.99 µM | 1.41 µM | 11.1 µM | 4.17 | 16.5 µM | 2.72 µM | 11.1 µM | 0.827 µM | 2.21 µM | 2.58 µM | 20.2 µM | 0.621 µM | 12.3 |
| CCC[CH2][Sn]1([CH2]CCC)[O]CC[S]1 | 0.268 | 1.11 | 0.299 | 1.39 µM | 2.21 | 6.03 | 0.041 | 0.187 µM | 0.818 µM | 2.12 µM | 0.156 | 0.332 µM | 2.09 µM | 3.59 µM | 0.324 µM | 1.15 µM | 0.749 µM | 2.1 µM | 0.15 µM | 1.28 |
| FC(F)(F)c1cc(NC(=S)N2c3ccccc3-n3cccc3C2c2cccnc2)cc(C(F)(F)F)c1 (centres undefined) | 4.31 | 19.6 | – | 26.9 µM | 9.25 | 26.8 | 3.68 | 13.7 µM | 12.1 µM | 35.9 µM | 11 | 35.8 µM | 7.23 µM | 21.7 µM | 11.6 µM | 23.9 µM | 9.67 µM | 37.8 µM | 3.58 µM | 19.3 |
| COc1cc(NS(C)(=O)=O)ccc1Cc1c2ccccc2nc2ccccc12 | 0.121 | 2.34 | 0.192 | 1.65 µM | 0.0164 | 1.06 | 0.0712 | 0.961 µM | 0.0742 µM | 1.17 µM | 0.396 | 2.06 µM | 0.059 µM | 0.368 µM | 0.121 µM | 1.11 µM | 0.993 µM | 4.24 µM | 0.307 µM | 2.4 |
| CC(C)=Cc1cccc2[nH]c(O)c(N=Nc3ccc(S(N)(=O)=O)cc3)c12 | 1.14 | > 25 | > 25 | > 25 µM | 4.1 | > 25 | > 25 | > 25 µM | > 25 µM | > 25 µM | 0.987 | > 19.4 µM | > 14.3 µM | > 25 µM | – | > 25 µM | > 25 µM | > 25 µM | 3.69 µM | > 25 |
| CC1OC(CC(=O)O)Cc2c1c(O)c1c(O)cc(-c3cc(=O)c4c(=O)c5c(c(=O)c=4c3=O)CC(CC(=O)O)OC5C)c(O)c1c2O (centres undefined) | 22 | 22.5 | 14.2 | 29.2 µM and 38.5 µM | 53.7 | > 100 | 17.8 | 18.9 µM and 64.7 µM | 29.2 µM | 32 µM | 12 | 20.3 µM and 27 µM | 71 µM | > 100 µM | 60.9 µM | 31.9 µM | 26.1 µM | 18.3 µM and 74.5 µM | 61.1 µM | > 83.6 |
| CCOC(=O)c1c(-c2ccc(OC)c(O)c2)c(C#N)c(=S)n(C2OC(COC(C)=O)C(OC(C)=O)C(OC(C)=O)C2OC(C)=O)c1-c1ccccc1 (centres undefined) | – | > 100 | – | 57 µM | – | > 100 | – | 45.7 µM | 33.8 µM and > 100 µM | > 100 µM | – | > 100 µM | 26.5 µM and > 100 µM | 72.2 µM and > 100 µM | 15.5 µM and > 100 µM | 33.4 µM and > 100 µM | 45.4 µM and > 100 µM | > 100 µM | 43.1 µM and > 100 µM | > 100 |
| Cc1ccc(-c2nc(/C=N/Nc3cc(C)nc4ccc(Br)cc34)c(C)o2)cc1 | 1.92 | 3.68 | 2.05 | 3.62 µM | 1.82 | 3.52 | 1.94 | 4.13 µM | 1.88 µM | 3.69 µM | 1.65 | 3.22 µM | 1.87 µM | 3.55 µM | 3.7 µM | 13.6 µM | 9.51 µM | 21.4 µM | 1.93 µM | 4.58 |

— PubChem BioAssay (NCI)
